Drawing on ChEMBL document CHEMBL1800064, “Biaryl ethers as potent allosteric inhibitors of reverse transcriptase and its key mutant viruses: aryl substituted pyrazole as a surrogate for the pyrazolopyridine motif” (Bioorg Med Chem Lett, 2010), this text covers IC95 and Ki for 24 compounds.

Assay [1] has as its system Human immunodeficiency virus 1. Briefly: Antiviral activity against HIV1 R8 harboring wild type reverse transcriptase infected in human MT4 cells assessed as inhibition of viral spread in presence of 10% fetal bovine serum. Particulars: Human immunodeficiency virus 1, R8, MT4; read-out: CIC95. It counts as functional.
Assay [2] deals with Human immunodeficiency virus type 1 reverse transcriptase (Human immunodeficiency virus 1, UniProt Q72547). Briefly: Inhibition of wild type HIV1 reverse transcriptase by SPA assay.
Assay [3] addresses Human immunodeficiency virus type 1 reverse transcriptase (Human immunodeficiency virus 1, UniProt Q72547, K103N). Briefly: Inhibition of HIV1 reverse transcriptase K103N mutant by SPA assay.
Assay [4] deals with T1, Human immunodeficiency virus type 1 reverse transcriptase (Human immunodeficiency virus 1, UniProt Q72547, Y181C). In words: Inhibition of HIV1 reverse transcriptase Y181C mutant by SPA assay.
Assay [5] concerns Human immunodeficiency virus 1. Briefly: Antiviral activity against HIV1 R8 harboring reverse transcriptase infected in human MT4 cells assessed as inhibition of viral spread in presence of 50% normal human serum. To be noted: Human immunodeficiency virus 1, R8, MT4; read-out: CIC95. It is filed as functional.
For assay [6], the system named is Human immunodeficiency virus 1. Briefly: Antiviral activity against HIV1 R8 harboring reverse transcriptase K103N mutant infected in human MT4 cells assessed as inhibition of viral spread in presence of 10% fetal bovine serum. It is filed as functional. To be noted: Human immunodeficiency virus 1, R8, MT4; read-out: CIC95.
The subject of assay [7] is Human immunodeficiency virus 1. In words: Antiviral activity against HIV1 R8 harboring reverse transcriptase Y181C mutant infected in human MT4 cells assessed as inhibition of viral spread in presence of 10% fetal bovine serum. It counts as functional. Particulars: Human immunodeficiency virus 1, R8, MT4; read-out: CIC95.
Assay [8] addresses T1, Human immunodeficiency virus type 1 reverse transcriptase. In words: Inhibition of HIV1 reverse transcriptase Y181C mutant by electrochemiluminescent assay.
For assay [9], the system named is Human immunodeficiency virus 1. In words: Antiviral activity against HIV1 R8 harboring reverse transcriptase K103N/Y181C double mutant infected in human MT4 cells assessed as concentration required to inhibit >95% viral spread in presence of 10% FBS. It is filed as functional. Particulars: Human immunodeficiency virus 1, R8, MT4; read-out: CIC95.

As for `N#Cc1cc(Cl)cc(Oc2cc(OCc3cc(-c4ccco4)[nH]n3)ccc2Cl)c1`, the IC95 in assay [1] was 97 nM; in assay [5], 922 nM; in assay [6] it was 922 nM; in [7], 833 nM. Besides, the Ki in assay [2] came out at 0.3 nM; in assay [3], 10 nM; in assay [4], 1.5 nM.

Turning to `N#Cc1cc(Cl)cc(Oc2cc(OCc3cc[nH]n3)ccc2Cl)c1`, the IC95 in assay [1] was determined as 922 nM; in assay [5], 8300 nM; in assay [6], 8300 nM. Moreover, the Ki in assay [2] was 39 nM; in [3], 179 nM; in assay [4], 140 nM.

For the compound `N#Cc1cc(Cl)cc(Oc2cc(OCc3cc(-c4ccccc4)[nH]n3)ccc2Cl)c1`, the IC95 was determined as 222 nM in [1], 924 nM in [5], 924 nM in assay [6] and 833 nM in assay [7]. Moreover, the Ki is 0.9 nM in [2], 2.4 nM in assay [3] and 12.5 nM in assay [4].

For the compound `N#Cc1cc(Cl)cc(Oc2cc(OCc3n[nH]cc3-c3ccccc3)ccc2Cl)c1`, the results for the IC95 in [1] and in assay [5] were 8300 nM and over 8300 nM, respectively. Also, the Ki was 460 nM in [2], over 340 nM in [3] and over 3000 nM in assay [4].

`N#Cc1cc(Cl)cc(Oc2cc(OCc3cc(-c4ccccc4)on3)ccc2Cl)c1`: the IC95 in assay [1] was found to be 926 nM; in [5], 8330 nM; in assay [6] it was 2780 nM; in assay [7], 833 nM. The results for the Ki in assay [2], in assay [3] and in assay [4] were 2.6 nM, 5.5 nM and 20.4 nM, respectively.

As for `N#Cc1cc(Cl)cc(Oc2cc(OCc3cc(-c4ccccc4)no3)ccc2Cl)c1`, the IC95 in [1] is over 8300 nM; in assay [5], over 8300 nM; in assay [6], over 8330 nM. In addition, the Ki in assay [2] worked out at 31 nM; in [3], 115 nM; in assay [4] it was 763 nM.

As for `N#Cc1cc(Cl)cc(Oc2cc(OCc3cc(-c4cccs4)[nH]n3)ccc2Cl)c1`, the IC95 in assay [1] worked out at 168 nM; in [5] it was 307 nM; in [6] it was 922 nM; in assay [7] it was 178 nM. Also, the Ki in assay [2] worked out at 1.6 nM; in assay [3], 4.6 nM; in assay [4] it was 49.5 nM.

`Cn1cc(-c2cc(COc3ccc(Cl)c(Oc4cc(Cl)cc(C#N)c4)c3)n[nH]2)cn1`: the Ki in assay [8] was 3 nM; in assay [2], 0.7 nM; in assay [3] it was 4.2 nM. Besides, the IC95 in assay [1] was 32 nM; in assay [5], 307 nM; in assay [6], 102 nM; in assay [7], 278 nM.

For the compound `N#Cc1cc(Cl)cc(Oc2cc(OCc3cc(-c4ccccn4)[nH]n3)ccc2Cl)c1`, the IC95 in assay [1] was 97 nM; in [5], 307 nM; in assay [6], 307 nM; in [7] it was over 833 nM. Also, the figures for the Ki in [2], in [3] and in assay [4] were 3.2 nM, 9.6 nM and 8.9 nM, respectively.

Regarding `N#Cc1cc(Cl)cc(Oc2cc(OCc3cc(-c4cccnc4)[nH]n3)ccc2Cl)c1`, the IC95 turned out to be 32 nM in assay [1], 307 nM in assay [5], 307 nM in [6] and 278 nM in [7]. Moreover, the Ki in [2] came to 1.1 nM; in [3], 5.2 nM; in [4] it was 6.7 nM.

Regarding `N#Cc1cc(Cl)cc(Oc2cc(OCc3cc(-c4cc[n+]([O-])cc4)[nH]n3)ccc2Cl)c1`, the IC95 in assay [1] was determined as 44 nM; in [5], 307 nM; in assay [6] it was 307 nM; in assay [7], 500 nM. Further, the Ki in assay [2] came to 5.3 nM; in [3], 21 nM; in [4] it was 46 nM.

`N#Cc1ccc(-c2cc(COc3ccc(Cl)c(Oc4cc(Cl)cc(C#N)c4)c3)n[nH]2)cc1`: the Ki in [8] was 12 nM; in assay [2], 0.7 nM; in [3] it was 3.6 nM. In addition, the IC95 in assay [1] is 34 nM; in assay [5], 922 nM; in assay [6] it was 307 nM.

`N#Cc1cc(Cl)cc(Oc2cc(OCc3n[nH]c(-c4ccccn4)c3Cl)ccc2Cl)c1`: the figures for the Ki in assay [8], in [2] and in assay [3] were 0.6 nM, 0.4 nM and 0.5 nM, respectively. Moreover, the IC95 in assay [1] came to 922 nM; in assay [5], 922 nM; in [6], 2770 nM.

Regarding `N#Cc1cc(Cl)cc(Oc2cc(OCc3n[nH]c(-c4ccncc4)c3Cl)ccc2Cl)c1`, the Ki in assay [8] turned out to be 0.5 nM; in assay [2], 0.5 nM; in assay [3], 0.7 nM. For the same compound, the IC95 in assay [1] was 97 nM; in [5], 307 nM; in assay [6], 102 nM; in [7], 278 nM.

As for `N#Cc1cc(Cl)cc(Oc2cc(OCc3n[nH]c(-c4ccc(-c5nnn[nH]5)cc4)c3Cl)ccc2Cl)c1`, the figures for the Ki in assay [8], in assay [2] and in [3] were 0.6 nM, 0.3 nM and 0.7 nM, respectively. Moreover, the IC95 in assay [1] was 2780 nM; in assay [5], over 8330 nM; in [6] it was 8330 nM.

On to `N#Cc1cc(Cl)cc(Oc2cc(OCc3cn(-c4ccccc4)nn3)ccc2Cl)c1`, for which the Ki came out at 68 nM in assay [2] and 946 nM in assay [3].

Regarding `N#Cc1cc(Cl)cc(Oc2cc(OCc3nc(-c4ccccc4)no3)ccc2Cl)c1`, the Ki in [2] stood at 15 nM; in [3], 56 nM.

For the compound `N#Cc1cc(Cl)cc(Oc2cc(OCc3nc(-c4ccccn4)no3)ccc2Cl)c1`, the IC95 in assay [1] and in assay [5] was over 8300 nM throughout. Further, the values for the Ki in assay [2] and in assay [3] were 29 nM and 69 nM, respectively.

On to `COc1ccc(-c2noc(COc3ccc(Cl)c(Oc4cc(Cl)cc(C#N)c4)c3)n2)cc1`, for which the IC95 in assay [1] and in assay [5] was over 8300 nM throughout. For the same compound, the results for the Ki in assay [2] and in assay [3] were 2.1 nM and 30 nM, respectively.

Regarding `COc1ccc(-c2nnc(COc3ccc(Cl)c(Oc4cc(Cl)cc(C#N)c4)c3)o2)cc1`, the IC95 in assay [1] and in [5] was 926 nM throughout. Moreover, the Ki in [2] stood at 5.2 nM; in [3] it was 9.3 nM.

Take `N#Cc1cc(Cl)cc(Oc2cc(OCc3nc(-c4ccc(Cl)cc4)no3)ccc2Cl)c1`: the IC95 in assay [1] and in assay [5] was over 8300 nM throughout. The Ki is 31 nM in assay [2] and 130 nM in assay [3].

Consider `N#Cc1cc(Cl)cc(Oc2cc(OCc3nnc(-c4ccc(Cl)cc4)o3)ccc2Cl)c1`, for which the IC95 in assay [1] worked out at 2780 nM; in assay [5], 830 nM. Also, the Ki in assay [2] is 4.9 nM; in [3], 11 nM.

`N#Cc1cc(Cl)cc(Oc2cc(OCc3ncc(-c4ccc(Cl)cc4)o3)ccc2Cl)c1`: the IC95 in [1] was found to be 926 nM; in assay [5] it was 277 nM. Moreover, the Ki came out at 2.1 nM in [2] and 4.4 nM in [3].

Take `O=C1Nc2ccc(Cl)cc2[C@@](C#CC2CC2)(C(F)(F)F)O1` [EFAVIRENZ]: the IC95 in [1] amounted to 4.3 nM; in [5] it was 38 nM; in assay [6], 232 nM; in assay [7], 8 nM; in assay [9], 272 nM.

The Ki is a dissociation constant, usually derived from enzyme kinetics or from competition with a known ligand. A higher Ki goes with a looser hold on the target.
